Measurements taken from US10653653B2, “Salts of 5-aminolevulinic acid and derivatives” (priority 2016, dated 2020).

Columns and labels:
[1] = Measurement of hydroscopicity (weight change method); format: physicochemical; details: sealed container, moisture of 70-85%, ambient temperature, 24 hours
Experimental: Hydroscopicity of salts from present disclosure was measured using a weight change method. The test samples were placed in a sealed container with moisture of 70-85% at ambient temperature for 24 hours and their weigh change was measured. All three hydrochloride salts of 5-ALA, 5-MAL and 5-HAL, and 5-ALA TCA were hygroscopic, their weight was increased by 25˜75%.

A549 cells = test: Measurement of PpIX formation in A549 cells in vitro; format: cell-based, human
Experimental: Test samples were dissolved with sterile saline to a concentration of 100 mM as stock solution. The stock solution was diluted to desired concentrations with culture medium or phosphate buffered solution (PBS).
A549 cells (ATCC), derived from human lung carcinoma, were grown in F12 medium (Gibco) containing 4.5 g/L glucose, 10% FCS, and penicillin/streptomycin, at 37° C. and 6% CO2 in a humid environment. For measurement purposes, the cells were sub-cultured in 48-well or 96-well dishes to give 5×10^4 cells/well 24 hours prior to incubation with test salts. The cells were washed twice with PBS and test solutions were added to the culture. After cells were incubated for 4, 8 or 24 hours, the medium was detached and the plates were rinsed twice with PBS, and PpIX natural fluorescence was measured at 360±40 nm excitation and 620±40 nm emission (CytoFluor Series 4000, Perspective Biosystems, MA, USA). The experiment was conducted in triplets.

[2] = system: upper surface of the tongue; test: Measurement of potential skin irritation/stimulation on tongue surface; format: in vivo; parameters: key: A: no irritation; B: irritation; C: strong irritation; D: very strong irritation; details: 3 mg on upper surface of the tongue for 3-5 minutes
Experimental: The potential irritation/stimulation of test samples was carried out by applying 3 mg of each sample to the upper surface of the tongue for 3-5 minutes and then evaluated.

## 5-Aminolevulinic Acid 2,2,2-Trichloroacetate [5-ALA TCA]
[1]
  appearance of sample after moisture exposure: turned to a liquid due to deliquescence
A549 cells; 10 mM, 4 hrs
  Activity (relative activity to induce porphyrin formation): 1.00 ± 0.02
A549 cells; 10 mM, 8 hrs
  Activity (relative activity to induce porphyrin formation): 1.30 ± 0.06
A549 cells; 10 mM, 24 hrs
  Activity (relative activity to induce porphyrin formation): 2.50 ± 0.17
[2]; participant 1
  irritation/stimulation on tongue surface: B
[2]; participant 2
  irritation/stimulation on tongue surface: B
[2]; participant 3
  irritation/stimulation on tongue surface: B
[2]; participant 4
  irritation/stimulation on tongue surface: B

## Cl.NCC(=O)CCC(=O)O [5-ALA HCl, 5-aminolevulinic acid hydrochloride, reference compound]
[1]
  appearance of sample after moisture exposure: turned to a liquid due to deliquescence
A549 cells; 10 mM, 4 hrs
  Activity (relative activity to induce porphyrin formation): 1.00
A549 cells; 10 mM, 8 hrs
  Activity (relative activity to induce porphyrin formation): 1.42 ± 0.04
A549 cells; 10 mM, 24 hrs
  Activity (relative activity to induce porphyrin formation): 2.35 ± 0.19
[2]; participant 1
  irritation/stimulation on tongue surface: D
[2]; participant 2
  irritation/stimulation on tongue surface: C
[2]; participant 3
  irritation/stimulation on tongue surface: D
[2]; participant 4
  irritation/stimulation on tongue surface: C

## CCCCCCOC(=O)CCC(=O)CN.Cl [5-HAL HCl, Hexyl 5-aminolevulinate hydrochloride, reference compound]
[1]
  appearance of sample after moisture exposure: turned to a liquid due to deliquescence
A549 cells; 0.5 mM, 4 hrs
  Activity (relative activity to induce porphyrin formation): 1.20 ± 0.15
A549 cells; 0.5 mM, 8 hrs
  Activity (relative activity to induce porphyrin formation): 1.57 ± 0.08
A549 cells; 0.5 mM, 24 hrs
  Activity (relative activity to induce porphyrin formation): 2.92 ± 0.30
A549 cells; 1 mM, 4 hrs
  Activity (relative activity to induce porphyrin formation): ~2
A549 cells; 1 mM, 8 hrs
  Activity (relative activity to induce porphyrin formation): ~4
A549 cells; 1 mM, 24 hrs
  Activity (relative activity to induce porphyrin formation): ~10
[2]; participant 1
  irritation/stimulation on tongue surface: B
[2]; participant 2
  irritation/stimulation on tongue surface: C
[2]; participant 3
  irritation/stimulation on tongue surface: C
[2]; participant 4
  irritation/stimulation on tongue surface: B

## COC(=O)CCC(=O)CN.Cl [5-MAL HCl, methyl 5-aminolevulinate hydrochloride, reference compound]
[1]
  appearance of sample after moisture exposure: turned to a liquid due to deliquescence
A549 cells; 10 mM, 4 hrs
  Activity (relative activity to induce porphyrin formation): 1.27 ± 0.04
A549 cells; 10 mM, 8 hrs
  Activity (relative activity to induce porphyrin formation): 1.60 ± 0.12
A549 cells; 10 mM, 24 hrs
  Activity (relative activity to induce porphyrin formation): 2.22 ± 0.16
[2]; participant 1
  irritation/stimulation on tongue surface: C
[2]; participant 2
  irritation/stimulation on tongue surface: C
[2]; participant 3
  irritation/stimulation on tongue surface: C
[2]; participant 4
  irritation/stimulation on tongue surface: C

## Hexyl 5-Aminolevulinate 2,2,2-Trichloroacetate [5-HAL TCA]
[1]
  appearance of sample after moisture exposure: unchanged as crystalline solid
  weight change (weight increase): remained unchanged
A549 cells; 0.5 mM, 4 hrs
  Activity (relative activity to induce porphyrin formation): 1.15 ± 0.05
A549 cells; 0.5 mM, 8 hrs
  Activity (relative activity to induce porphyrin formation): 1.57 ± 0.11
A549 cells; 0.5 mM, 24 hrs
  Activity (relative activity to induce porphyrin formation): 2.72 ± 0.10
A549 cells; 1 mM, 4 hrs
  Activity (relative activity to induce porphyrin formation): ~2
A549 cells; 1 mM, 8 hrs
  Activity (relative activity to induce porphyrin formation): ~4
A549 cells; 1 mM, 24 hrs
  Activity (relative activity to induce porphyrin formation): ~10
[2]; participant 1
  irritation/stimulation on tongue surface: B
[2]; participant 2
  irritation/stimulation on tongue surface: B
[2]; participant 3
  irritation/stimulation on tongue surface: A
[2]; participant 4
  irritation/stimulation on tongue surface: B

## Methyl 5-Aminolevulinate 2,2,2-Trichloroacetate [5-MAL TCA]
[1]
  appearance of sample after moisture exposure: unchanged as crystalline solid
  weight change (weight increase): < 5%
A549 cells; 10 mM, 4 hrs
  Activity (relative activity to induce porphyrin formation): 1.20 ± 0.04
A549 cells; 10 mM, 8 hrs
  Activity (relative activity to induce porphyrin formation): 1.25 ± 0.02
A549 cells; 10 mM, 24 hrs
  Activity (relative activity to induce porphyrin formation): 2.20 ± 0.16
[2]; participant 1
  irritation/stimulation on tongue surface: B
[2]; participant 2
  irritation/stimulation on tongue surface: B
[2]; participant 3
  irritation/stimulation on tongue surface: B
[2]; participant 4
  irritation/stimulation on tongue surface: B
